The record followed here is PMC5424463, “A strategy based on nucleotide specificity leads to a subfamily-selective and cell-active inhibitor of N ^6-methyladenosine demethylase FTO” (Chemical Science, 2014).

In general, IC50 refers to the concentration needed to halve the response being measured.

Each structure is given as a SMILES string. “And” between values parts separate entries of the source, which are not always exact repeats. Equal values may be shown once.

T2 sequence (Q6P6C2 66-292): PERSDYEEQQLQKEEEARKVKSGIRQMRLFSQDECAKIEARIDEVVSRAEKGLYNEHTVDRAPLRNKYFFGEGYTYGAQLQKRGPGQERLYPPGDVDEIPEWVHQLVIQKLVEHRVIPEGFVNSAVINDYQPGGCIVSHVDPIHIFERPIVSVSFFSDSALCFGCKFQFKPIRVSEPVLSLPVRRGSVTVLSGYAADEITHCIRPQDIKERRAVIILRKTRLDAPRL

One assay has as its target T1, ALKBH2 (Homo sapiens, UniProt Q6NS38).
T1 construct: made in house; host or cells: E. coli BL21 (DE3)
T1 sequence (Q6NS38 56-258): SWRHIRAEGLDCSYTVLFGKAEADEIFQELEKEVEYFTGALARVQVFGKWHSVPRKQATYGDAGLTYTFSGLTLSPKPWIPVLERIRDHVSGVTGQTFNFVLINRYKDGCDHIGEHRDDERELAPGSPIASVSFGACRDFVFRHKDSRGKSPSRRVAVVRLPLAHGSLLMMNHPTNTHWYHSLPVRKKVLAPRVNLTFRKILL
The assay is described as follows: HPLC-based inhibition assay for ALKBH2, m1A-ssDNA substrate. The assay is classed as biochemical.
Conditions: not given
The method, then: HPLC-based inhibition assays for AlkB and ALKBH2
The assay was modified from previously reported method.[18] A 15-mer m1A-ssDNA substrate with the sequence 5’-AAAGCAG(m1A)ATTCGAA-3 ’ (Yale University, W.M.
Keck Foundation Biotechnology Resource Laboratory) was used in this inhibition assay. The assay was performed in triplicate for each inhibitor, in a final reaction volume of 25 µL.
Reaction consisted of AlkB (1 µM) or ALKBH2 (2 µM), 2OG (50 µM), (NH4)2Fe(SO4)2·6H2O (50 µM), L-ascorbate (2 mM), m1A-ssDNA substrate (10 µM), in 50 mM HEPES buffer, pH 7.5, and inhibitor at various concentrations (final DMSO concentration not more than 1% v/v of assay mix). The reaction was incubated at 4°C for 10 min, before analysis on a bio-inert HPLC system. The m1A-ssDNA substrate and the corresponding demethylated product were separated using a Dionex DNAPac PA200 anion-exchange column (8 µm, […]) with a gradient of 98% solvent A (50 mM sodium citrate buffer, pH 5.5) to 65% solvent B (50 mM sodium citrate buffer, pH 5.5 with 1.25 M sodium chloride) over 18 min, at a flow rate of 1 mL/min at 40°C. The UV detection wavelength was set at 266 nm. The percentage inhibition was estimated based on the peak areas of the m1A-ssDNA substrate and the corresponding demethylated product. For IC50 determination, eight different concentrations of inhibitors were used (0, 1, 3, 10, 30, 100, 300, […]
different inhibitor concentrations, using nonlinear regression, with normalized dose-response fit on GraphPad Prism 6.0™. […]
`O=C(O)/C=C/C(=O)NNC(=O)c1cnccc1Cc1ccccc1` [Compound 12] returned a 50% inhibitory concentration (IC50) of 25.9 µM.
The same measure, in the same setting: in the case of `O=C(O)/C=C/C(=O)NNC(=O)c1cccnc1` [Compound 21] it was 152 µM and > 100 µM; in that of `O=C(O)C=CC(=O)NNC(=O)c1cc(Cc2ccccc2)ccn1` [Compound 22], 39.9 µM.
Same read-out and setting: in the case of `O=C(O)/C=C/C(=O)NNC(=O)c1ccccn1` [Compound 23] it was 127 µM.

The target of the next assay is T1, ALKBH2. In words: Differential scanning fluorimetry (DSF)-based binding assay, ALKBH2. Particulars: DSF, 100 μM compound, 2 μM protein, 50 μM MnCl2; read-out: Tm shift (ALKBH2). The protocol:
(§1) Superdex-200 column (GE Healthcare) pre-equilibrated with 20 mM HEPES, pH 7.5, 300 mM NaCl, 10% (v/v) glycerol, 0.5 mM TCEP. […]
(§2) Differential scanning fluorimetry (DSF)-based binding assay
DSF-based binding assay was performed using a MiniOpticon™ Real-Time PCR Detection System (Bio-Rad), monitoring protein unfolding using SYPRO orange (Invitrogen) according to the reported method.[16] FAM (492 nm) and ROX (610 nm) filters were used for excitation and emission respectively. Reaction mixes contained 2 μM protein, 50 μM MnCl2, 100 μM compounds, 5x SYPRO orange in a final volume of 50 μl. Reagents were prepared in 50mM HEPES buffer, pH 7.5 except metals, which were dissolved as 100 mM stocks in 20 mM HCl, then further diluted in MilliQ water. Compounds tested were prepared in 100% DMSO and added such that the final concentration of DMSO was not more than 1% v/v of assay […]
mix. Fluorescence readings were taken every 1°C in the range 25-95°C, with the temperature increased linearly by 1°C min -1. The software provided was used to perform global minimum subtraction. The inflection point, representing Tm, was calculated by fitting the Boltzmann equation to the sigmoidal curves obtained; data were processed using GraphPad Prism 6.0™.
The Tm shift caused by the addition of small molecules/ fragments was determined by subtraction of the “reference” Tm (protein incubated with metal and 1% v/v DMSO) from the Tm obtained in the presence of the compound. The assay was performed in triplicate for each inhibitor, with standard deviations typically < 1°C. […]
As to `O=C(O)/C=C/C(=O)NNC(=O)c1cnccc1Cc1ccccc1` [Compound 12], the ΔTm at 100 µM is 4.9 °C.
Same read-out and setting: then `O=C(O)/C=C/C(=O)NNC(=O)c1cccnc1` [Compound 21], with 2 °C.
`O=C(O)C=CC(=O)NNC(=O)c1cc(Cc2ccccc2)ccn1` [Compound 22]: the ΔTm at 100 µM turned out to be 3.7 °C.
On the same count and under the same terms, then `O=C(O)/C=C/C(=O)NNC(=O)c1ccccn1` [Compound 23], with 2.3 °C.

A further assay has as its target T2, ALKBH5 (Homo sapiens, UniProt Q6P6C2).
T2 construct: pNIC28-Bsa4 ALKBH5 (encompassing residues 66-292); made in house; host or cells: E. coli BL21 (DE3) Rosetta T1R
The assay is described as follows: Differential scanning fluorimetry (DSF)-based binding assay, ALKBH5. Particulars: 100 μM compound, 2 μM protein, 50 μM MnCl2, read-out: Tm shift (ALKBH5). The protocol: as §1, §2
DSF-based binding assay was performed using a MiniOpticon™ Real-Time PCR Detection System (Bio-Rad), monitoring protein unfolding using SYPRO orange (Invitrogen) according […]
to the reported method.[16] […]
and emission respectively. Reaction mixes contained 2 μM protein, 50 μM MnCl2, 100 μM […]
Reagents were prepared in 50mM
HEPES buffer, pH 7.5 except metals, which were dissolved as 100 mM stocks in 20 mM HCl, then further diluted in MilliQ water. Compounds tested were prepared in 100% DMSO and added such that the final concentration of DMSO was not more than 1% v/v of assay […]
increased linearly by 1°C min -1. The software provided was used to perform global minimum subtraction. The inflection point, representing Tm, was calculated by fitting the Boltzmann equation to the sigmoidal curves obtained; data were processed using GraphPad Prism 6.0™.
The Tm shift caused by the addition of small molecules/ fragments was determined by subtraction of the “reference” Tm (protein incubated with metal and 1% v/v DMSO) from the Tm obtained in the presence of the compound. […]
On the technique in general: In DSF a fluorescence change marks the thermal transition of the protein.
For `O=C(O)/C=C/C(=O)NNC(=O)c1cnccc1Cc1ccccc1` [Compound 12], the ΔTm at 100 µM stood at 2.7 °C.
Still for that read-out and setting: then `O=C(O)/C=C/C(=O)NNC(=O)c1cccnc1` [Compound 21], with 2.1 °C; and `O=C(O)C=CC(=O)NNC(=O)c1cc(Cc2ccccc2)ccn1` [Compound 22], with 2.8 °C.
Same read-out and setting: in the case of `O=C(O)/C=C/C(=O)NNC(=O)c1ccccn1` [Compound 23] it was 2.1 °C.
